Legend:
KRas G12S = molecular target: T1, KRas G12S (Homo sapiens, UniProt P01116, G12S); experiment: KRas binding assay, TR-FRET displacement of Cy5 labelled tracer; details: 60-minute incubation at room temperature, 1% DMSO, pH 7.5
T1 construct: Biotinylated KRas (corresponding to amino acids 1-169, produced at Accelegan Inc.); biotin (biotinylated); purchased Accelegan Inc
Outline: (§1)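 Compound competes with tracer for biotin-labelled KRas (amino acids 1-169) bound to terbium-streptavidin. Incubation runs 60 minutes at room temperature, final DMSO 1%. IC50 values derive from a 4-parameter fit.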

KRas WT = molecular target: T2, KRas WT (Homo sapiens, UniProt P01116); experiment: as above; details: 60-minute incubation at room temperature, 1% DMSO, pH 7.5
T2 construct: Biotinylated KRas (corresponding to amino acids 1-169, produced at Accelegan Inc.); biotin (biotinylated); purchased Accelegan Inc
T2 sequence (P01116 1-169 isoform P01116-2): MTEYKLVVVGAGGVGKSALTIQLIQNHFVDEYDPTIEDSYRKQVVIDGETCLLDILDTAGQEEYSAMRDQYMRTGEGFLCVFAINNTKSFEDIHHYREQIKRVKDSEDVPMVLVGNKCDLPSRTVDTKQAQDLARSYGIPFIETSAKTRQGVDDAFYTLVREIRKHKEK
Outline: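 Truncated KRas (1-169), biotinylated, Tb-streptavidin donor; one-hour room-temperature incubation; IC50 by four-parameter curve fitting.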

KRas G12C = molecular target: T3, KRas G12C (Homo sapiens, UniProt P01116, G12C); experiment: as above; details: 60-minute incubation at room temperature, 1% DMSO, pH 7.5
T3 construct: Biotinylated KRas (corresponding to amino acids 1-169, produced at Accelegan Inc.); biotin (biotinylated); purchased Accelegan Inc
T3 sequence (P01116 1-169 isoform P01116-2 G12C): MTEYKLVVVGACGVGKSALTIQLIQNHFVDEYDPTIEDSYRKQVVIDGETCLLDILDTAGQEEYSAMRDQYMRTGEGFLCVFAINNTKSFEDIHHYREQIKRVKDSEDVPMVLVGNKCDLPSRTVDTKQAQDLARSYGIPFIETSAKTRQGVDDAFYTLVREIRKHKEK
Outline: as §1

[1] = molecular target: T4, KRas-mediated phosphorylation of ERK in A549 cells (Homo sapiens, UniProt P01116, G12S); experiment: Inhibition of KRas-mediated phosphorylation of ERK (HTRF), A549 cells; assay type: cell-based; details: HTRF pERK, 3 h incubation
T4 construct: pERK HTRF read-out
T4 sequence (P01116 1-188 isoform P01116-2 G12S): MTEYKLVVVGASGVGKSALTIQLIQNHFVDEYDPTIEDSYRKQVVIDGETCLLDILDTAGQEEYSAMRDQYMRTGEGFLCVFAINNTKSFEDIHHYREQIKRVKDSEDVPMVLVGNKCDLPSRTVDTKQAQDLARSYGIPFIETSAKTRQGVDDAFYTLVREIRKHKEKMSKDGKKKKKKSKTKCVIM

[2] = molecular target: T5, KRas-mediated phosphorylation of ERK in H358 cells (Homo sapiens, UniProt P01116, G12C); experiment: Inhibition of KRas-mediated phosphorylation of ERK (HTRF), H358 cells; assay type: cell-based; details: HTRF pERK, 3 h incubation
T5 construct: pERK HTRF read-out
T5 sequence (P01116 1-188 isoform P01116-2 G12C): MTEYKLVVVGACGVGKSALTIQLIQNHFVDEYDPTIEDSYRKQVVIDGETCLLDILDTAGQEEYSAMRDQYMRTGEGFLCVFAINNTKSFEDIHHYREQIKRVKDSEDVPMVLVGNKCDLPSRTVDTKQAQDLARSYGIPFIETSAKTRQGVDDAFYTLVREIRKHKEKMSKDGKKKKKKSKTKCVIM

[3] = molecular target: T6, KRas-mediated phosphorylation of ERK in MKN1 cells (Homo sapiens, UniProt P01116); experiment: Inhibition of KRas-mediated phosphorylation of ERK (HTRF), MKN1 cells; assay type: cell-based; details: MKN1 cells (KRas WT); HTRF pERK; 3 h incubation
T6 construct: pERK HTRF read-out
T6 sequence (P01116 1-188 isoform P01116-2): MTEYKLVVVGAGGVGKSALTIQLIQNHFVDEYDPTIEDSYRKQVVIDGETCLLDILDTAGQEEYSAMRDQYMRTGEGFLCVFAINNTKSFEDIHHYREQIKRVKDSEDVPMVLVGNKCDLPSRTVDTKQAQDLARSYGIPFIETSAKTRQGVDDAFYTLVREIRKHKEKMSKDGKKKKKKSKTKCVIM
Procedure: Inhibition of KRas Phosphorylation of ERK (HTRF) by Exemplary Compounds of Formula (Ia) or (Ib)
Cisbio HTRF Advanced pERK Assay Catalog #64AERPEH • Cells: MKN1, PSN1 • Procedure: • 1. Day 1: Seed 6,000 cells/well −25 μl/well in 384-well white solid bottom plate; RPM1_10% FBS. Incubate overnight at 37 °C/5% CO2. • 2.

T1 sequence (P01116 1-169 isoform P01116-2 G12S): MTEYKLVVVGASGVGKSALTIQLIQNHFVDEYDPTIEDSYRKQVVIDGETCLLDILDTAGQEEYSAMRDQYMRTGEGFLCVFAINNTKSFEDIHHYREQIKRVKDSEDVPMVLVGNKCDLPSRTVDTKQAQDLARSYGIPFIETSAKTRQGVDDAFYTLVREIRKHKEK

IC50 (KRas G12S) [nM]	IC50 (KRas WT) [nM]	IC50 (KRas G12C) [nM]	IC50 [1] [nM]	IC50 [2] [nM]	IC50 [3] [nM]	Compound
3	2	5	1580	39	40	CCc1c(F)ccc2cc(O)cc(-c3ncc4c(N5CCN(C(=O)n6ccnc6)CC5)nc(OC[C@@]56CCCN5C[C@H](F)C6)nc4c3F)c12 [Example 150, (4-(7-(8-ethyl-7-fluoro-3-hydroxynaphthalen-1-yl)-8-fluoro-2-(((2R,7aS)-2-fluorotetrahydro-1H-pyrrolizin-7a(5H)-yl)methoxy)pyrido[4,3-d]pyrimidin-4-yl)piperazin-1-yl)(1H-imidazol-1-yl)methanone]
18	9	12	1210	14	72	CCc1c(F)ccc2cc(O)cc(-c3ncc4c(N5CCN(C(=O)n6ccnn6)CC5)nc(OC[C@@]56CCCN5C[C@H](F)C6)nc4c3F)c12 [Example 151, (4-(7-(8-ethyl-7-fluoro-3-hydroxynaphthalen-1-yl)-8-fluoro-2-(((2R,7aS)-2-fluorotetrahydro-1H-pyrrolizin-7a(5H)-yl)methoxy)pyrido[4,3-d]pyrimidin-4-yl)piperazin-1-yl)(1H-1,2,3-triazol-1-yl)methanone]
257	131	338	6280	7230	2870	CCc1c(F)ccc2cc(O)cc(-c3ncc4c(N5CCC(C(=O)N6CCCCC6=O)CC5)nc(OC[C@@]56CCCN5C[C@H](F)C6)nc4c3F)c12 [Example 154, 1-(1-(7-(8-ethyl-7-fluoro-3-hydroxynaphthalen-1-yl)-8-fluoro-2-(((2R,7aS)-2-fluorotetrahydro-1H-pyrrolizin-7a(5H)-yl)methoxy)pyrido[4,3-d]pyrimidin-4-yl)piperidine-4-carbonyl)piperidin-2-one]
135	140	204	445	2530	671	CCc1c(F)ccc2cc(O)cc(-c3ncc4c(N5CCC(C(=O)N(C)C(C)=O)CC5)nc(OC[C@@]56CCCN5C[C@H](F)C6)nc4c3F)c12 [Example 155, N-acetyl-1-(7-(8-ethyl-7-fluoro-3-hydroxynaphthalen-1-yl)-8-fluoro-2-(((2R,7aS)-2-fluorotetrahydro-1H-pyrrolizin-7a(5H)-yl)methoxy)pyrido[4,3-d]pyrimidin-4-yl)-N-methylpiperidine-4-carboxamide]
122	32	84	7590	2110	955	CCc1c(F)ccc2cc(O)cc(-c3ncc4c(N5CC[C@@H]6[C@H](C5)[C@@H]6C(=O)n5ccc(C)n5)nc(OC[C@@]56CCCN5C[C@H](F)C6)nc4c3F)c12 [Example 157, ((1S,6R,7R)-3-(7-(8-ethyl-7-fluoro-3-hydroxynaphthalen-1-yl)-8-fluoro-2-(((2R,7aS)-2-fluorotetrahydro-1H-pyrrolizin-7a(5H)-yl)methoxy)pyrido[4,3-d]pyrimidin-4-yl)-3-azabicyclo[4.1.0]heptan-7-yl)(3-methyl-1H-pyrazol-1-yl)methanone]
4	15	6	6	108	57	CCc1c(F)ccc2cc(O)cc(-c3ncc4c(NC[C@H]5C[C@@H]5C(=O)n5ccc(C)n5)nc(OC[C@@]56CCCN5C[C@H](F)C6)nc4c3F)c12 [Example 159, ((1S,2S)-2-(((7-(8-ethyl-7-fluoro-3-hydroxynaphthalen-1-yl)-8-fluoro-2-(((2R,7aS)-2-fluorotetrahydro-1H-pyrrolizin-7a(5H)-yl)methoxy)pyrido[4,3-d]pyrimidin-4-yl)amino)methyl)cyclopropyl)(3-methyl-1H-pyrazol-1-yl)methanone]

Reference: patent US20260356856A1, “KRAS G12S AND G12C INHIBITORS” (MIRATI THERAPEUTICS, INC., priority 2023, published 2026)
